IC50 data for 13 compounds are collected here from US10005767B2, “Compositions and methods for inhibition of the JAK pathway” (Rigel Pharmaceuticals, Inc., priority 2009, dated 2018).

Structures can show the parent of a compound that is named as a salt.

For one test, the system named is human primary T-cells, IL-2 stimulated proliferation (JAK-1 and JAK-3 dependent; reported as JAK3 activity). As to the kind of experiment: Human primary T-cell proliferation stimulated by IL-2 (Example 3). It counts as cell-based. Conditions: Homo sapiens, T-cell, tested under conditions described in Example 3 (IL-2 stimulated human primary T-cell proliferation); read-out: ability to inhibit JAK3 activity, IC50 range (Table V). The gist of the method: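 Peripheral-blood human T-cells pre-activated via TCR/CD28, IL-2-starved overnight, then cultured 72 h at 37 °C with compound in Yssel's medium containing IL-2 (80 U/mL in cell suspension). Proliferation read as viable-cell ATP by CellTiter-Glo luminescence; reduction versus control taken as JAK pathway inhibition.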
In the case of `Cc1cnc(Nc2ccc(C(=O)N3CCCC3)cc2)nc1Nc1ccc2oc(=O)[nH]c2c1` [Compound I-247, 5-(5-methyl-2-(4-(pyrrolidine-1-carbonyl)phenylamino)pyrimidin-4-ylamino)benzo[d]oxazol-2(3H)-one], the IC50 is less than 500 nM. The same measure, in the same setting: as for `O=c1[nH]c2cc(Nc3nc(Nc4ccc(OC(F)(F)F)cc4)ncc3F)ccc2o1` [Compound I-109, N4-(benzoxazolin-2-on-5-yl)-N2-(4-trifluoromethoxyphenyl)-5-fluoropyrimidine-2,4-diamine trifluoroacetate salt], the figure is less than 500 nM. Take `Cc1cnc(Nc2ccc3c(c2)CN(O)C3)nc1Nc1ccc2oc(=O)[nH]c2c1` [III-2, N4-(benzo[d]oxazol-2(3H)-on-5-yl)-N2-(2-hydroxyisoindolin-5-yl)-5-methylpyrimidine-2,4-diamine]: the IC50 is less than 500 nM. `Cc1ccc(Nc2ncc(C)c(Nc3ccc4oc(=O)[nH]c4c3)n2)cc1C` [Compound I-178, 5-[2-(3,4-Dimethyl-phenylamino)-5-methyl-pyrimidin-4-ylamino]-3H-benzooxazol-2-one]: the IC50 was less than 500 nM.

As to `COc1ccc(Nc2ncc(C)c(Nc3ccc4oc(=O)[nH]c4c3)n2)cc1COC(C)C` [Compound I-422, 5-(2-(3-(isopropoxymethyl)-4-methoxyphenylamino)-5-methylpyrimidin-4-ylamino)benzo[d]oxazol-2(3H)-one], the half-inhibitory concentration (IC50) is less than 500 nM. On the same count and under the same terms, the same measure for `O=c1[nH]c2cc(Nc3nc(Nc4ccc(N5C[C@@H]6C[C@H]5CO6)nc4)ncc3F)ccc2o1` [II-34, N4-(benzoxazolin-2-on-5-yl)-N2-[2-((1S,4S)-2-oxa-5-azabicyclo[2.2.1]heptan-5-yl)pyridin-5-yl]-5-fluoropyrimidine-2,4-diamine]: less than 500 nM; for `COc1cc(Nc2ncc(C)c(Nc3cc(C)c4oc(=O)[nH]c4c3)n2)cc(C(F)(F)F)c1` [Compound I-427, 5-(2-(3-methoxy-5-(trifluoromethyl)phenylamino)-5-methylpyrimidin-4-ylamino)-7-methylbenzo[d]oxazol-2(3H)-one]: more than 10000 nM; for `Cc1cnc(Nc2ccc3c(c2)CN(CC2CCCC2)C3)nc1Nc1ccc2oc(=O)[nH]c2c1` [III-10, N4-(benzo[d]oxazol-2(3H)-on-5-yl)-N2-(2-cyclopentylmethylisoindolin-5-yl)-5-methylpyrimidine-2,4-diamine]: less than 500 nM.

The test is the same for the next values; noted with them: tested under conditions described in Example 3 (IL-2 stimulated human primary T-cell proliferation); read-out: ability to inhibit JAK3 activity, IC50 range (Table V).
Take `Cc1ccc(Nc2ncc(C)c(Nc3ccc4oc(=O)n(C)c4c3)n2)cc1NS(C)(=O)=O` [Compound I-82, N2-((3-methylsulfonylamino-4-methyl)phenyl)-N4-(3-methyl-2-oxo-2,3-dihydrobenzo[d]oxazol-5-yl)-5-methylpyrimidine-2,4-diamine]: the IC50 is less than 500 nM. The same measure, in the same setting: as for `Cc1cnc(Nc2cccc(-c3cccnc3)c2)nc1Nc1ccc2oc(=O)[nH]c2c1` [Compound I-290, 5-methyl-N4-(2-oxo-2,3-dihydro-1,3-benzoxazol-5-yl)-N2-[3-(pyridin-3-yl)]phenyl-2,4-pyrimidinediamine], the figure is less than 500 nM; as for `Cc1cnc(Nc2ccc(N3CCC(F)(F)CC3)c(C(F)(F)F)c2)nc1Nc1ccc2oc(=O)[nH]c2c1` [Compound I-276, N2-[4-(4,4-difluoropiperidinyl)-3-trifluoromethyl]phenyl-5-methyl-N4-(2-oxo-2,3-dihydro-1,3-benzoxazol-5-yl)-2,4-pyrimidinediamine], less than 500 nM; as for `CCc1cc(Nc2ncc(C)c(Nc3ccc4oc(=O)[nH]c4c3)n2)cc(C#N)c1Cl` [Compound I-383, N2-(4-chloro-3-cyano-5-ethyl)phenyl-5-methyl-N4-(2-oxo-2,3-dihydro-1,3-benzoxazol-5-yl)-2,4-pyrimidinediamine], 500 to 5000 nM. The same measure, in the same setting: as for `Cc1ccc(Nc2ncc(C)c(Nc3ccc4oc(=O)[nH]c4c3)n2)cc1OC(F)F` [Compound I-390, N2-(3-difluoromethoxy-4-methyl)phenyl-5-methyl-N4-(2-oxo-2,3-dihydro-1,3-benzoxazol-5-yl)-2,4-pyrimidinediamine], the figure is less than 500 nM.
